{
  "source": "BindingDB's records for doi:10.1016/j.jmb.2005.09.095",
  "about": "(Georgia State University, 2005)",
  "experiment_in_all_cases": "Protease Inhibition Assay",
  "details_in_all_cases": "pH 5; 22 °C",
  "key": {"[1]": {"molecular_target": "T1, Dimer of Gag-Pol polyprotein [501-599,Q508K,L534I,L564I,C568A,C596A,G574S] (Human immunodeficiency virus 1, UniProt P03367, C568A/C596A/G574S/L534I/L564I/Q508K)", "T1 construct": "501-599", "from_the_text": "(§1) The Ki values were obtained from the IC50 values estimated from an inhibitor dose-response curve with the spectroscopic assay and the chromogenic substrate."}, "[2]": {"molecular_target": "T2, Dimer of Gag-Pol polyprotein [501-599,Q508K,L534I,L564I,C568A,C596A,I551V] (Human immunodeficiency virus 1, UniProt P03367, C568A/C596A/I551V/L534I/L564I/Q508K)", "T2 construct": "501-599", "from_the_text": "as §1"}, "[3]": {"molecular_target": "T3, Dimer of Gag-Pol polyprotein [501-599,Q508K,L534I,L564I,C568A,C596A,L525I] (Human immunodeficiency virus 1, UniProt P03367, C568A/C596A/L525I/L534I/L564I/Q508K)", "T3 construct": "501-599", "from_the_text": "as §1"}, "[4]": {"molecular_target": "T4, Dimer of Gag-Pol polyprotein [501-599,Q508K,L534I,L564I,C568A,C596A] (Human immunodeficiency virus 1, UniProt P03367, C568A/C596A/L534I/L564I/Q508K)", "T4 construct": "501-599", "from_the_text": "as §1"}},
  "note": "Starred links: 1 amine or outer side, 2 acyl side, 3 side chain; linkers in the order of their positions; H or OH if unused. Non-standard residues stand in square brackets, D forms with d. Residues, ends and D or L forms follow the SMILES beside them. Groups on a side chain read outwards from the residue. N(2S-amino-4-Me-pentyl)Phe = CC(C)C[C@@H](CN([C@@H](Cc1ccccc1)C(=O)[*:2])[*:1])N[*:3]; Nle = CCCC[C@H](N)C(=O)O",
  "data": [
    {"smiles": "CCCC[C@H](NC(=O)[C@H](C)NC(=O)[C@H](CCC(=O)O)NC(=O)[C@H](Cc1ccccc1)NC[C@H](CC(C)C)NC(=O)[C@@H](NC(=O)[C@@H](N)CCCNC(=N)N)C(C)C)C(N)=O", "note": "[N-1270] (H-[N(2S-amino-4-Me-pentyl)Phe]([Val-Arg])EA[Nle]-NH2)", "values": [
      {"measurement": "Ki", "setting": "[1]", "value": 330, "unit": "nM"},
      {"measurement": "Ki", "setting": "[2]", "value": 230, "unit": "nM"},
      {"measurement": "Ki", "setting": "[3]", "value": 3.5, "unit": "nM"},
      {"measurement": "Ki", "setting": "[4]", "value": 75, "unit": "nM"}
    ]}
  ]
}
